According to patent US7943173B2, “Pharmaceutical combinations of oxycodone and naloxone” (Purdue Pharma L.P., priority 2001, dated 2011):
Structures can show the parent of a compound that is named as a salt. Marks after values point to notes of the source that are not given here.

Assays:
[1] = Example 8: adverse events; format: in vivo, human
Description: There were no deaths or serious adverse events. No subjects discontinued because of adverse events. The majority of drug-related adverse events occurred when subjects were dosed with Talwin® Nx. These included nausea, vomiting, dizziness, and headache. One subject withdrew consent due to a schedule conflict.
Eleven of 18 subjects experienced a total of 25 adverse events, none serious. Seven of these subjects experienced adverse events described as possibly, probably, or definitely related to the study medication. Overall, adverse events were more frequently reported in subjects receiving Talwin® Nx, consistent with expected adverse events related to pentazocine. All subjects recovered from all adverse events. No action (e.g., discontinuation) was taken with regard to the study drug.

clinical [2] = details: both, human, plasma; for AUC(0-t): AUCt; for AUC(0-t) / Cmax / Tmax: plasma naloxone
Description: In Example 8, a single-center, open-label, randomized, 4-period, 4-sequence, 4-treatment crossover study in 18 normal, healthy, young adult, male and female subjects under fasted conditions was conducted. […] Subjects were randomly assigned to four sequences with periods consisting of the following: • Period 1 was Days 1-8 (from the time of the first dose until the time of the second dose), • Period 2 was Days 8-15 (from the time of the second dose until the third dose), • Period 3 was Days 15-22 (from the third dose until the fourth dose), and • Period 4 was Days 22 (from the time of the last dose until the end of the study).
Dosing took place on Days 1, 8, 15, and 22. For the duration of the study, subjects were instructed not to engage in heavy exercise.
Talwin® Nx was administered with 8 ounces of water, which the subjects drank completely. Afterwards, mouth inspections were done to ensure that each subject swallowed the tablet.
Following the single oral dose of naloxone, subjects drank two additional 75 ml rinses of water, for a total volume of 225 ml. For divided doses (also 0.02 mg/ml), the first dose was followed by two 94 ml rinses of water, and subsequent doses were followed by two 75 ml rinses of water.
Intravenous naloxone was administered by IV push. Following IV naloxone, subjects were observed by staff members continuously for at least 20 minutes.
Each subject received each treatment one time. Each treatment followed an overnight fast (excluding water) of at least 10 hours, and after dosing, the subjects fasted for an additional 4 hours. Except for the days of dosings, there were no food restrictions. While subjects were confined to the clinical unit all meals were served at standardized times, and the content was standardized throughout the study and between subjects. Meal records were maintained, including content. No caffeine or xanthine-containing beverages were served while the subjects were in the clinical facility.

clinical [3] = details: both, human, plasma, oral
Description: Up to 96 subjects were to be enrolled in order to complete a minimum of 48 subjects who were evaluable for pharmacokinetics. […] Subjects successfully completing the Narcan® challenge were randomly assigned to 1 of 2 crossover treatment sequences (reference to test or test to reference) with a 5-day washout period separating dosing in the 2 periods. Subjects were confined to the study facility continuously from Day-1 until Day 10. […] All doses were administered with 8 ounces of water after an overnight fast (excluding water). […] Plasma concentrations of oxycodone and naloxone (as applicable) were determined, and pharmacokinetic metrics were calculated and analyzed. […] For the purpose of statistical analyses, Period 1 was defined as the time from administration of the first dose (Day 2) to just prior to administration of the second dose (Day 7). Period 2 was defined as the time from administration of the second dose (Day 7) to the time of the 72-hour postdose blood collection on Day 10.

[4] = conclusions of the study, treatment not named
[5] = iv, 0.5 mg, 0.5 mg IV naloxone HCl, arithmetic mean (SD)
[6] = po, 1.5 mg, 1.5 mg naloxone HCl oral divided doses, arithmetic mean (SD)
[7] = po, 1.5 mg, 1.5 mg naloxone HCl single oral dose, 18 subjects, arithmetic mean (SD)

Structure (SMILES): C=CCN1CC[C@]23c4c5ccc(O)c4O[C@H]2C(=O)CC[C@@]3(O)[C@H]1C5 [Naloxone HCl, naloxone hydrochloride]
- adverse events considered possibly, probably, or definitely related to study drug ([1]; 0.5 mg intravenous naloxone): nausea possibly related
- adverse events considered possibly, probably, or definitely related to study drug ([1]; 1.5 mg oral naloxone in divided doses): headache possibly related
- tolerability ([1]; given alone, total doses of 0.5 mg IV and up to 1.5 mg orally): well tolerated
- adverse events during the naloxone challenge test ([1]; intravenous challenge at screening, 18 subjects randomized): No adverse events were observed
- AUC0-∞, dose normalized (Dose Normalized to 0.5 mg IV Naloxone HCl dose, 0.5 mg IV arm, 15 subjects): 3051 (668)^a pg · h/ml
- Mean naloxone peak exposure [4]: 8 pg/mL
- naloxone peak exposure, range [4]: 0 to 16.6 pg/mL
- AUC(0-inf) (clinical [2]; iv, 0.5 mg): 3.05 ng·h/mL
- clearance (clinical [2]; iv, 0.5 mg): 2850 mL/min
- AUC(0-t) (clinical [2]; iv, 0.5 mg, 0.5 mg IV naloxone HCl, fasted healthy subjects, arithmetic mean (SD)): 3.2 ng·h/mL
- Cmax (clinical [2]; [5]): 6.25 ng/mL
- half-life (clinical [2]; iv, 0.5 mg, t1/2, plasma naloxone, 0.5 mg IV naloxone HCl, 15 subjects, arithmetic mean (SD)): 0.92 h
- Tmax (clinical [2]; [5]): 0.14 h
- AUC(0-t) (clinical [2]; po, 1.5 mg, 1.5 mg naloxone HCl oral divided doses (0, 3, 6, 9 h), arithmetic mean (SD)): 0.0649 ng·h/mL
- AUC(0-t) (clinical [2]; po, 1.5 mg, 1.5 mg naloxone HCl single oral dose (solution), 18 subjects, arithmetic mean (SD)): 0.0474 ng·h/mL
- Cmax (clinical [2]; [6]): 0.0134 ng/mL
- Cmax (clinical [2]; [7]): 0.023 ng/mL
- bioavailability (clinical [2]; po, 1.5 mg, F (%) absolute bioavailability, 1.5 mg naloxone HCl oral divided doses, based on AUCt, mean (SD)): 0.66%
- bioavailability (clinical [2]; po, 1.5 mg, F (%) absolute bioavailability, 1.5 mg naloxone HCl single oral dose, based on AUCt, mean (SD)): 0.47%
- Tmax (clinical [2]; [6]): 3.18 h
- Tmax (clinical [2]; [7]): 0.78 h
- bioavailability (clinical [2]; po, absolute bioavailability of naloxone, all three oral treatments studied): < 1%
- Cmax (clinical [3]): 0.00213 ± 0.00447 ng/mL
- Tmax (clinical [3]): 3.35 ± 3.69 h
- half-life (clinical [3]): 4.3 ± 3.03 h
